Data from patent US20040116448A1, “Substances for the therapy of diseases caused by highly proliferating cells” (priority 2001, published 2004).

Legend:
[1] = system: BJAB cells; experiment: Cell death of BJAB cells after incubation with JV-206-1 (FIG. 6A); type: cell-based; conditions: incubation for 48 hours
Procedure: (§1) Further studies had the result that the BJAB cells are driven to the mitochondrial apoptosis signal pathway by JV-206-1. […] In addition, the fragmentation of the DNA was measured as a specific characteristic of apoptosis as described by Essmann et al. (2000). […] In these experiments, the proportion of apoptotic cells was between 20% and 48% of the total population, depending on the concentration and incubation time.

[2] = system: BJAB cells; experiment: Mitochondrial membrane potential (JC-1 staining) in BJAB cells; type: cell-based
Procedure: as §1

[3] = system: BJAB cells; experiment: DNA fragmentation (propidium iodide staining, flow cytometry) apoptosis assay in BJAB cells; type: cell-based; conditions: 20 μM
Procedure: The measurement of apoptosis is based on a method which detects the fragmentation of DNA on the level of individual cells, which is typical of apoptosis and distinguishes this form of cell death from necrosis. Thus, BJAB cells were treated with different concentrations of N76 or N69 for 24 h. Controls contained corresponding amounts of the solubilizer ethanol. After the treatment, the fragmentation of DNA was measured by staining with propidium iodide followed by quantification by flow cytometry as described by Essmann et al. (2000). The values are stated as % of apoptotic cells based on the total population±SD (n=3).
as §1

[4] = system: lymphoblasts from children afflicted with acute lymphoblastic leukemia (ALL); experiment: DNA fragmentation apoptosis assay in primary lymphoblasts from children with acute lymphoblastic leukemia (ALL); type: cell-based, human; conditions: 25 μM, 36 h
Procedure: In this experiment, lymphoblasts from children afflicted with acute lymphoblastic leukemia (ALL) were isolated and, after dilution with cell culture medium, treated for 36 h with 25 μM N76, 25 μM N69 or with 9 μM epirubicin (E) as a positive control. Controls contained corresponding amounts of the solubilizer ethanol. After the treatment, the fragmentation of the DNA was measured by staining with propidium iodide followed by quantification by flow cytometry as described by Essmann et al. (2000). The values are stated as % of apoptotic cells based on the total population±SD (n=3).
Thus, with N76 and N69, two substances of general structural formula 2 are provided as effective agents against certain tumor cells, especially those of childhood ALL, but also against other malignant diseases of different origin. […] In these experiments, the cells from eleven ALL patients were isolated and, after dilution with cell culture medium, treated for 36 h with 25 μM N69, 25 μM N76 or corresponding amounts of cytarabin (AraC), fludarabin or doxorubicin. […] After the treatment, the fragmentation of the DNA was measured by staining with propidium iodide followed by quantification by flow cytometry as described by Essmann et al. (2000). P values were calculated from a paired t test and are stated in FIG. 4 directly for the individual pairs to be compared. […]

[5] = system: BIAB cells; experiment: Combined proliferation and cell death assay (Neubauer cell counting, trypan blue staining); type: cell-based; conditions: 25 μM, after 24 h
Procedure: To further characterize the role of the various components of the newly described substances, the iron-complexed compound N69 and the compound obtainable from N69 by cleaving the Fe(CO)3 group were prepared and employed in a combined proliferation and cell death assay. Thus, BIAB cells were treated for 24 h and 72 h. with different concentrations of N69 or the corresponding compound lacking the iron complex. Controls contained corresponding amounts of the solubilizer ethanol. After the treatment, the number of cells was counted in a Neubauer counting chamber, and the number of dead cells was counted by trypan blue staining as described by Wieder et al. (1995). […] FIG. 5B states the proportion of dead cells in %±SD (n=3) as determined at these times at the respective concentration. […] As can be easily seen, the complexed iron plays an important role in the cell-death inducing activity of the substances. The complexed iron shifts the dose-effect curve of the cell-death inducing effect of N69 towards lower concentrations.

[6] = system: cells from patients suffering from different leukemias; experiment: DNA fragmentation apoptosis assay in cells from patients suffering from different leukemias; type: cell-based, human; conditions: 25 μmol/l, 36 h
Procedure: The usefulness of substances according to the invention for the therapy of various malignant diseases of the hematopoetic system was tested on cells from patients suffering from different diseases. Thus, cells from patients suffering from different leukemias were isolated and, after dilution with cell culture medium, treated for 36 h with 25 μM N69. Controls contained corresponding amounts of the solubilizer ethanol. After the treatment, the fragmentation of the DNA was measured by staining with propidium iodide followed by quantification by flow cytometry as described by Essmann et al. (2000). The result can be seen in FIG. 3. The measured values are stated as % of apoptotic cells based on the total population and represent the mean value from duplicate experiments.

Molecule | induction of cell death [1] | fraction of cells having a reduced mitochondrial membrane potential (ΔΨm) [2] | cell death by apoptosis (DNA fragmentation) [3] | pro-apoptotic effect in vitro towards primary ALL cells compared to established cytostatic agents ([4]; cells from eleven ALL patients, versus doxorubicin, cytarabin and fludarabin-5′ dihydrogenphosphate, paired t test) | induction of apoptosis in vitro in therapy-resistant cells of patients ([4]; ALL lymphoblasts, in contrast to 9 μM epirubicin (positive control)) | proportion of dead cells (trypan blue) [5] | induction of apoptotic cell death ([6]; cells from patients suffering from acute myeloblastic leukemia (AML)) | induction of apoptotic cell death ([6]; cells from patients suffering from chronic myeloblastic leukemia (CML)) | induction of apoptotic cell death ([6]; cells from patients with a first manifestation of ALL) | induction of apoptotic cell death ([6]; cells from patients with a recurrence of acute lymphoblastic leukemia (ALL-Rez))
CCOC(=O)C=CC1=C[C@H](n2cc(Br)c(=O)[nH]c2=O)C[C@H]1CO[Si](C)(C)C(C)(C)C(C)C.O=[C]=[Fe](=[C]=O)=[C]=O (racemic) [JV-206-1, (3RS,5RS)-3-[3-(5-bromo-2,4-dioxo-3,4-dihydro-2H-pyrimidin-1-yl)-5-[dimethyl-(1,1,2-trimethylpropyl)silanyloxymethyl]-cyclopent-1-enyl]acrylic-acid-ethyl-estertricarbonyliron] | induces cell death | concentration-dependent increase | major part of the cells die | – | – | – | – | – | – | –
exo-[2′,2″,3′,3″-η-(3′-(3″-(E)-acrylic-acid-ethyl-ester-3″-yl)-2′,3′-didehydro-2′,3′-dideoxy-5′-O-(dimethylthexylsilyl)-β-D-cytidine)]tricarbonyliron [N69] | – | – | – | significantly better pro-apoptotic effect | induce apoptosis | about 90% | induces apoptotic cell death | induces apoptotic cell death | induces apoptotic cell death | induces apoptotic cell death
